We go through 12 compounds from ChEMBL document CHEMBL1201862, “PubChem BioAssay data set” (2004).

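Values below derive from 48-hour exposures of cells grown in 96-well plates, with endpoints linearly interpolated between the two concentrations bracketing the appropriate inhibition level. GI50: concentration for 50% inhibition of growth.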 Activity calls are given as the source filed them. No stated cut-off is given here; in the data, active = GI50 up to about 1.1 µM and inactive = higher.

Test in all cases: NCI tumour cell line growth inhibition, 48 h
Assay [1] has as its system IGROV-1.
The test system of assay [2] is MOLT-4.
Assay [3] has as its system NCI-H460.
The subject of assay [4] is K562.
In assay [5] the test system is BT-549.
In assay [6] the test system is OVCAR-3.
Assay [7] relates to SK-MEL-28.
Assay [8] has as its system HOP-62.
In assay [9] the test system is PC-3.
For assay [10], the system named is KM12.
The subject of assay [11] is A549.
For assay [12], the system named is M14.
Assay [13] has as its system COLO 205.
Assay [14] has as its system OVCAR-4.
In assay [15] the test system is TK-10.
The subject of assay [16] is NCI/ADR-RES.
Assay [17] deals with UACC-62.
The test system of assay [18] is ACHN.
Assay [19] deals with Malme-3M.

Regarding `Nc1ccc2nc(N)n[n+]([O-])c2c1`, the GI50 in assay [1], in [2], in [3], in [4], in [5] and in [6] was > 100 µM (inactive) each time. The GI50 in assay [7], in assay [8], in assay [9], in assay [10], in assay [11] and in [12] was > 100 µM (inactive) in each case. In addition, the GI50 in [13], in [14], in assay [15], in assay [16], in assay [17] and in assay [18] was > 100 µM (inactive) in each case.

In the case of `S=c1oc(CCCCCCCCc2nn(CNc3ccccc3)c(=S)o2)nn1CNc1ccccc1`, the GI50 was > 100 µM (inactive) in assay [2]; > 100 µM (inactive) in assay [3]; 57.5 µM (inactive) in assay [4]; > 100 µM (inactive) in assay [5]; > 100 µM (inactive) in assay [7]; > 100 µM (inactive) in assay [8]. Besides, the GI50 in [9], in assay [10], in assay [11], in assay [12], in [13] and in assay [14] was > 100 µM (inactive) each time. For the same compound, the GI50 in [15], in assay [16], in [17] and in assay [18] was > 100 µM (inactive) throughout.

On to `O=C1CCCC2=C1CC1=C(CCCC1=O)N2c1cccc2ccccc12`, for which the GI50 is > 100 µM (inactive) in assay [1]; 78 µM (inactive) in [2]; > 100 µM (inactive) in assay [3]; 44 µM (inactive) in assay [4]; 26.8 µM (inactive) in assay [5]; > 100 µM (inactive) in [6]. The GI50 in [7], in assay [9], in assay [10], in [11], in assay [12] and in assay [14] was > 100 µM (inactive) in each case. For the same compound, the GI50 in assay [15] is > 100 µM (inactive); in assay [16] it was > 100 µM (inactive); in assay [17], 64.1 µM (inactive); in assay [18], > 100 µM (inactive).

For `C/N=c1/oc2ccccc2cc1C(N)=O`, the GI50 in assay [1] was 53.3 µM (inactive); in assay [2] it was > 100 µM (inactive); in [3], > 100 µM (inactive); in assay [4] it was > 100 µM (inactive); in assay [5], > 100 µM (inactive); in assay [6], > 100 µM (inactive). For the same compound, the GI50 in assay [7], in assay [8], in [9], in assay [10], in assay [11] and in assay [12] was > 100 µM (inactive) in each case. The GI50 in assay [13] is > 100 µM (inactive); in assay [15], > 100 µM (inactive); in [16], > 100 µM (inactive); in [17] it was 64.1 µM (inactive); in assay [18], > 100 µM (inactive).

Take `COc1ccccc1NC(=O)CC(=O)N1N=C(N2c3ccccc3Sc3ccccc32)CC1c1ccccc1` (stereo unspecified): the GI50 in [1], in assay [2], in assay [3], in [4], in assay [5] and in assay [6] was > 100 µM (inactive) throughout. Besides, the GI50 in assay [7], in [8], in assay [9], in [10], in [11] and in assay [12] was > 100 µM (inactive) each time. Besides, the GI50 in assay [13], in assay [14], in [15], in assay [16], in assay [17] and in [18] was > 100 µM (inactive) in each case.

As for `c1ccc(C(=NNc2nc3ccccc3[nH]2)c2ccccn2)nc1`, the GI50 in assay [1] is 0.112 µM (active); in assay [2], 0.015 µM (active); in assay [3], 0.134 µM (active); in [4], 0.172 µM (active); in assay [5] it was 0.48 µM (active); in [6], 0.0393 µM (active). Moreover, the GI50 in assay [7] is 0.185 µM (active); in assay [8], 0.207 µM (active); in [9], 0.224 µM (active); in assay [10], 0.298 µM (active); in [11], 0.3 µM (active); in [12], 0.126 µM (active). Moreover, the GI50 is 0.0257 µM (active) in assay [13]; 0.0592 µM (active) in assay [14]; 0.121 µM (active) in assay [15]; 0.115 µM (active) in assay [16]; 0.222 µM (active) in [17]; 0.114 µM (active) in assay [18].

As to `Cc1ccc(Nc2cn(COCc3ccccc3)c(=O)[nH]c2=O)cc1`, the GI50 in assay [1] is 45.6 µM (inactive); in assay [2], > 100 µM (inactive); in assay [3], > 100 µM (inactive); in [4] it was > 100 µM (inactive); in assay [5] it was 11.7 µM (inactive); in assay [6] it was > 100 µM (inactive). Also, the GI50 in assay [7] is > 100 µM (inactive); in [8] it was 29.4 µM (inactive); in assay [9] it was > 100 µM (inactive); in assay [10] it was > 100 µM (inactive); in assay [11], > 100 µM (inactive); in assay [12], > 100 µM (inactive). The GI50 was > 100 µM (inactive) in assay [13]; > 100 µM (inactive) in [14]; > 100 µM (inactive) in [16]; 43.9 µM (inactive) in [17]; 37 µM (inactive) in [18].

`CC(=O)[C@@H]1C/C(=C\OCc2ccccc2)O[C@H]1C`: the GI50 in assay [1] was > 100 µM (inactive); in assay [2] it was > 100 µM (inactive); in [3], > 100 µM (inactive); in [4], 54 µM (inactive); in [5], > 100 µM (inactive); in assay [6], > 100 µM (inactive). The GI50 in assay [7], in assay [8], in [10], in [11], in [12] and in assay [13] was > 100 µM (inactive) in each case. For the same compound, the GI50 in assay [14], in [15], in [16], in assay [19] and in assay [18] was > 100 µM (inactive) each time.

As to `CCOC(=O)NC(N(C)C(C(C)C)P(=O)(OCC)OCC)(C(F)(F)F)C(F)(F)F` (stereo unspecified), the GI50 in assay [1], in assay [2], in assay [3], in assay [4], in assay [6] and in [7] was > 100 µM (inactive) in each case. The GI50 in assay [8], in assay [9], in [10], in assay [11], in [12] and in assay [13] was > 100 µM (inactive) throughout. Also, the GI50 in assay [14], in [15], in assay [16], in [17], in assay [19] and in assay [18] was > 100 µM (inactive) in each case.

Consider `COC(=O)CCc1ccc2c(c1)CC1(C2)Cc2ccc3c(c2C1)CCC3` (stereo unspecified), for which the GI50 was > 100 µM (inactive) in [1]; 38.5 µM (inactive) in assay [2]; > 100 µM (inactive) in assay [3]; 38.7 µM (inactive) in assay [4]; > 100 µM (inactive) in assay [6]; > 100 µM (inactive) in assay [7]. Moreover, the GI50 in assay [8] was > 100 µM (inactive); in assay [9] it was > 100 µM (inactive); in assay [10], 39.3 µM (inactive); in assay [11] it was 53.5 µM (inactive); in assay [12], 59.2 µM (inactive); in assay [13], 80.4 µM (inactive). The GI50 in [14] was 49.1 µM (inactive); in [15], > 100 µM (inactive); in assay [16], > 100 µM (inactive); in assay [17] it was 23.6 µM (inactive); in assay [19], > 100 µM (inactive); in [18], > 100 µM (inactive).

As to `O=C1C(Cl)=C(N(C(=O)c2ccccc2)C(=O)c2ccccc2)C(=O)c2ccccc21`, the GI50 in assay [1] is 19.4 µM (inactive); in assay [2], 55 µM (inactive); in assay [3], 5.12 µM (inactive); in assay [4], 3.4 µM (inactive); in assay [5], 9.04 µM (inactive); in [6] it was 10.9 µM (inactive). Moreover, the GI50 in [7] is 14.9 µM (inactive); in [8] it was 49 µM (inactive); in assay [9], 9.18 µM (inactive); in assay [10] it was 3.38 µM (inactive); in assay [11] it was 16.4 µM (inactive); in assay [12] it was 14.4 µM (inactive). Also, the GI50 was 16.1 µM (inactive) in assay [13]; 21.2 µM (inactive) in assay [15]; 29.2 µM (inactive) in assay [16]; 5.12 µM (inactive) in assay [17]; 3.17 µM (inactive) in assay [18].

With `Cc1ccc(Cl)c2c(=O)c3ccc(N)cc3sc12`, the GI50 in assay [1] is 10 µM (inactive); in [2], 11.7 µM (inactive); in assay [3], 31.9 µM (inactive); in [4] it was 18.4 µM (inactive); in assay [5], 29.4 µM (inactive); in assay [6], 20 µM (inactive). In addition, the GI50 in [8] is 19.7 µM (inactive); in assay [9] it was 25 µM (inactive); in assay [10], 14.7 µM (inactive); in assay [11], 24.9 µM (inactive); in [12], 28.4 µM (inactive); in assay [13], 16.6 µM (inactive). Moreover, the GI50 was 38.3 µM (inactive) in assay [15], 15.1 µM (inactive) in assay [16], 14.9 µM (inactive) in [17] and 21.4 µM (inactive) in assay [18].
